Measured values from patent US11518763B2 (SCOHIA PHARMA, INC., priority 2018, dated 2022).

Biological target: T1, binding between NRF2 and KEAP1 (biotinylated human KEAP1 protein (Kelch domain), TAMRA-labeled NRF2 peptide) (Homo sapiens, UniProt Q14145)
T1 construct: biotinylated human KEAP1 protein (Kelch domain); biotin (biotinylated)
Test: Measurement of activity of inhibiting NRF2 binding (NRF2-KEAP1 TR-FRET)
Conditions: inhibition rate relative to control at 100 nM test compound, TR-FRET, 60 min at room temperature; for inhibition at 0.1 µM: read-out: NRF2 binding inhibitory activity (at 100 nM)
Description: Test Example 1: Measurement of Activity of Inhibiting NRF2 Binding
The inhibitory activity of test compounds against the binding between NRF2 and KEAP1 was measured by Time Resolved Fluorescence Resonance Energy Transfer (TR-FRET) method. Into a 384 well plate, 2 μL of a compound, 2 μL of 2 nM solution of biotinylated human KEAP1 protein (Kelch domain), 2 μL of 14 nM solution of TAMRA-labeled NRF2 peptide (TAMRA-Abu(4)-VWYTDIRMRDWM-OH), and 2 μL of 2 nM solution of Tb-labeled streptavidin, all solutions diluted with assay buffer (25 mM HEPES, pH7.5, 150 mM NaCl, 0.01% Tween-20), were added. For some wells, the KEAP1 protein was not added to define control wells. The plate was incubated at room temperature for 60 minutes, and time-resolved fluorescence was measured with a plate reader Envision (manufactured by PerkinElmer). The inhibitory activity for each compound at a compound concentration of 100 nM were calculated as a relative activity value by setting the fluorescence intensity of control wells to which the KEAP1 protein was not added as 100% inhibition, and the fluorescence intensity of wells to which no compound was added as 0%.
The measurement results according to the method described above (inhibition rate of signal value relative to control at 100 nM of test compound) are shown in Table 3.

T1 sequence (Q14145 321-609 limits assumed): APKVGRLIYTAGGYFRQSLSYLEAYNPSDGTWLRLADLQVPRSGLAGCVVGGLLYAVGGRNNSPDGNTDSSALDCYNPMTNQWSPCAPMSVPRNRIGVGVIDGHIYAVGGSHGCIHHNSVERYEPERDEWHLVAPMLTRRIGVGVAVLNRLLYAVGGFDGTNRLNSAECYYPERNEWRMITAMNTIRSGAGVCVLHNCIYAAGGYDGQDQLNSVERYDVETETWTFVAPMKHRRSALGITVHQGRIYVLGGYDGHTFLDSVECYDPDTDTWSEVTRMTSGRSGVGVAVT

inhibition at 0.1 µM [%]	Structure (SMILES)	other results
100	Cc1c2ccc3c1nnn3CCCOCc1ccc(c(OC(F)(F)F)c1)C(=O)N1CCc3ccc(cc3C1)C2CC(=O)O (racemic) [Example 20, [32-Methyl-20-oxo-18-(trifluoromethoxy)-14-oxa-8,9,10,21-tetraazahexacyclo[19.5.3.2^16,19.1^3,7.0^6,10.0^24,28]dotriaconta-1(26),3(32),4,6,8,16,18,24,27,30-decaen-2-yl] acetic acid]	
100	COc1cc2ccc1C(=O)N1CCc3ccc(cc3C1)C(CC(=O)O)c1ccc3c(nnn3CCCOC2)c1C (racemic) [Example 22, [18-Methoxy-32-methyl-20-oxo-14-oxa-8,9,10,21-tetraazahexacyclo[19.5.3.2^16,19.1^3,7.0^6,10.0^24,28]dotriaconta-1(26),3(32),4,6,8,16,18,24,27,30-decaen-2-yl]acetic acid]	
100	Cc1c2ccc3c1nnn3CCCOCc1ccc(c(C(F)(F)F)c1)C(=O)N1CCc3ccc(cc3C1)C2CC(=O)O (racemic) [Example 23, [32-Methyl-20-oxo-18-(trifluoromethyl)-14-oxa-8,9,10,21-tetraazahexacyclo[19.5.3.2^16-19.1^3,7.0^6,10.0^24,28]dotriaconta-1(26),3(32),4,6,8,16,18,24,27,30-decaen-2-yl]acetic acid]	
100	Cc1c2ccc3c1nnn3CCCOCc1ccc(c(Cl)c1)C(=O)N1CCc3ccc(cc3C1)C2CC(=O)O (racemic) [Example 24, [18-Chloro-32-methyl-20-oxo-14-oxa-8,9,10,21-tetraazahexacyclo[19.5.3.2^16,19.1^3,7.0^6,10.0^24,28]dotriaconta-1(26),3(32),4,6,8,16,18,24,27,30-decaen-2-yl]acetic acid]	
6	CCOC(=O)CC1c2ccc3c(c2)CN(CC3)C(=O)c2ccc(cc2)COCCCn2nnc3c(C)c1ccc32 (racemic) [Example 27, Ethyl [32-methyl-20-oxo-14-oxa-8,9,10,21-tetraazahexacyclo[19.5.3.2^16,19.1^3,7.0^6,10.0^24,28]dotriaconta-1(26),3(32),4,6,8,16,18,24,27,30-decaen-2-yl]acetate]	
100	Cc1c2ccc3c1nnn3CCCOCc1ccc(cc1)C(=O)N1CCc3ccc(cc3C1)C2C(C)(C)C(=O)O (racemic) [Example 28, 2-Methyl-2-[32-methyl-20-oxo-14-oxa-8,9,10,21-tetraazahexacyclo[19.5.3.2^16,19.1^3,7.0^6,10.0^24,28]dotriaconta-(26),3(32),4,6,8,16,18,24,27,30-decaen-2-yl]propanoic acid]	
100	Cc1c2ccc3c1nnn3CCCCOc1ccc(cc1)C(=O)N1CCc3ccc(cc3C1)C2CC(=O)O (racemic) [Example 30, [32-Methyl-20-oxo-15-oxa-8,9,10,21-tetraazahexacyclo[19.5.3.2^16,19.1^3,7.0^6,10.0^24,28]dotriaconta-1(26),3(32),4,6,8,16,18,24,27,30-decaen-2-yl]acetic acid]	
100	Cc1c2ccc3c1nnn3CCCCOc1ccc(c(F)c1)C(=O)N1CCc3ccc(cc3C1)C2CC(=O)O (racemic) [Example 31, [18-Fluoro-32-methyl-20-oxo-15-oxa-8,9,10,21-tetraazahexacyclo[19.5.3.2^16,19.1^3,7.0^6,10.0^24,28]dotriaconta-1(26),3(32),4,6,8,16,18,24,27,30-decaen-2-yl]acetic acid]	
100	Cc1c2ccc3c1nnn3CCCCOc1cc(F)c(c(F)c1)C(=O)N1CCc3ccc(cc3C1)C2CC(=O)O (racemic) [Example 32, [18,30-Difluoro-32-methyl-20-oxo-15-oxa-8,9,10,21-tetraazahexacyclo[19.5.3.2^16,19.1^3,7.0^6,10.0^24,28]dotriaconta-1(26),3(32),4,6,8,16,18,24,27,30-decaen-2-yl]acetic acid]	
100	Cc1c2ccc3c1nnn3CCCCOc1ccc(c3c1OC(C)(C)C3)C(=O)N1CCc3ccc(cc3C1)C2CC(=O)O (racemic) [Example 33, [6,6,33-Trimethyl-2-oxo-7,10-dioxa-1,15,16,17-tetraazaheptacyclo[22.5.3.2^3.9.1^18,22.0^4,8.0^15,19.0^27,31]pentatriaconta-3,8,16,18(33),19,21,24,26,31,34-decaen-23-yl]acetic acid]	
100	Cc1c2ccc3c1nnn3CCCCCc1cc(Cl)c(c(Cl)c1)C(=O)N1CCc3ccc(cc3C1)C2C(C)(C)C(=O)O (racemic) [Example 57, 2-[18,30-dichloro-32-methyl-20-oxo-8,9,10,21-tetrazahexacyclo[19.5.3.2^16,19.1^3,7.0^6,10.0^24,28]dotriaconta-1(26),3(32),4,6,8,16,18,24,27,30-decaen-2-yl]-2-methylpropanoic acid]	
100	Cc1c2ccc3c1nnn3CCCCCc1cc(Cl)c(c(Cl)c1)C(=O)N1CCc3ccc(cc3C1)C2CC(=O)O (racemic) [Example 64, [2-[18,30-dichloro-32-methyl-20-oxo-8,9,10,21-tetrazahexacyclo[19.5.3.2^16,19.1^3,7.0^6,10.0^24,28]dotriaconta-1(27),3(32),4,6,8,16(31),17,19(30),24(28),25-decaen-2-yl]acetyl]oxysodium]	
100	Cc1c2ccc3c1nnn3CCCCCc1ccc(cc1)C(=O)N1CCc3ccc(cc3C1)C2C(C)C(=O)O (centres unmarked) [Example 6, 2-[32-Methyl-20-oxo-8,9,10,21-tetraazahexacyclo[19.5.3.2^16,19.1^3,7.0^6,10.0^24,28]dotriaconta-1(26),3(32),4,6,8,16,18,24,27,30-decaen-2-yl]propanoic acid]	
	Cc1c2ccc3c1nnn3CCCCCc1ccc(cc1)C(=O)N1CCc3ccc(cc3C1)C2CC(=O)O (centres unmarked) [Example 12, [32-Methyl-20-oxo-8,9,10,21-tetraazahexacyclo[19.5.3.2^16,19.0^3,7.0^6,10.0^24,28]dotriaconta-1(26),3(32),4,6,8,16,18,24,27,30-decaen-2-yl]acetic acid]	NRF2 binding inhibitory activity (at 100 nM): 100%
	Cc1c2ccc3c1nnn3CCCOCc1ccc(cc1)C(=O)N1CCc3ccc(cc3C1)C2CC(=O)O (centres unmarked) [Example 26, [32-Methyl-20-oxo-14-oxa-8,9,10,21-tetraazahexacyclo[19.5.3.2^16,19.1^3,7.0^6,10.0^24,28]dotriaconta-1(26),3(32),4,6,8,16,18,24,27,30-decaen-2-yl]acetic acid]	NRF2 binding inhibitory activity (at 100 nM) (0.1 µM): 99%
99	Cc1oc(=O)oc1COC(=O)CC1c2ccc3c(c2)CN(CC3)C(=O)c2ccc(cc2)COCCCn2nnc3c(C)c1ccc32 (centres unmarked) [Example 34, (5-Methyl-2-oxo-2H-1,3-dioxol-4-yl)methyl [32-methyl-20-oxo-14-oxa-8,9,10,21-tetraazahexacyclo[19.5.3.2^16,19.1^3,7.0^6,10.0^24,28]dotriaconta-1(26),3(32),4,6,8,16,18,24,27,30-decaen-2-yl]acetate]	
99	Cc1oc(=O)oc1COC(=O)CC1c2ccc3c(c2)CN(CC3)C(=O)c2ccc(cc2)CCCCCn2nnc3c(C)c1ccc32 (centres unmarked) [Example 35, (5-Methyl-2-oxo-2H-1,3-dioxol-4-yl)methyl [32-methyl-20-oxo-8,9,10,21-tetraazahexacyclo[19.5.3.2^16,19.1^3,7.0^6,10.0^24,28]dotriaconta-1(26),3(32),4,6,8,16,18,24,27,30-decaen-2-yl]acetate]	
